In PMC12040169 (PLOS Biology, 2025):

Assay: in vitro
Conditions: human, hela cells, % viability

SMILES | viability at 28.5 h, 10 µM [%]
Cn1cnnc1Sc1cc(N2CCN(S(=O)(=O)c3ccc(Cl)c(Cl)c3)CC2)ccc1[N+](=O)[O-] [CBK266618] | 98.3
C[C@@H]1CN(C(=O)c2nccc3ccccc23)C[C@H](C)O1 [CBK200233] | 92.8
Cn1ccnc1C(NC(=O)c1ccccn1)c1ccc(F)c(F)c1 (stereo not drawn) [CBK283783] | 91.6
CC(=O)N1CCc2sccc2C1c1ccc(NC(=O)c2cccc(F)c2)cc1 (stereo not drawn) [CBK286466] | 83.8
CCCC/C=C/c1cncc(N2CCN(c3ccccn3)CC2)n1 [CBK037276] | 117
CCCn1nc(C)c(-c2cncn2CCCN2CCCCC2)c1C [CBK281496] | 100
CCn1cc(CN2CCC(O)(c3ccc(C)cc3)CC2)cn1 [CBK282735] | 85.7
O=C1N[C@]2(CCc3ccccc31)CN(Cc1ccccc1)C[C@H]2CO [CBK284795] | 106
COc1ccc(C(NC(=O)C2CCCN(C(=O)NC(=O)c3ccccc3)C2)c2ccccc2C)cn1 (stereo not drawn) [CBK075023] | 90.9
O=C(Cc1cccc(F)c1)N1CCC(c2cc3ncccc3[nH]2)CC1 [CBK283374] | 100
Cn1ccnc1C1(O)CC2CCC(C1)N2C(=O)c1ccccc1Cl (stereo not drawn) [CBK284090] | 99
COc1ccc(OC)c(C(=O)N2CCNC(=O)C2Cc2ccc(-c3cccs3)cc2)c1 (stereo not drawn) [CBK285803] | 111
COCC(=O)N1c2ccccc2CC[C@@H]1C(=O)OC [CBK285472] | 103
COc1ccc(CNC(=O)C(=O)NCc2ccccc2)cc1 [CBK262158] | 103
CC(CN(C)C(=O)CC1CCN(C(=O)CC2CCCCC2)CC1)c1ccccc1 (stereo not drawn) [CBK286268] | 97.9
FC(F)(F)c1ccnc(OCCNc2ccccc2)c1 [CBK115824] | 90.5
COc1ccc(CCCC(=O)Nc2ccccc2N2CCNCC2)cc1OC [CBK028283T] | 107
C[C@@H]1CN(C(=O)OCc2ncc(F)cc2F)C[C@H](C)O1 [CBK200286] | 103
Cc1cc(C)nc(Nc2ccc(C3CCCN(C(=O)c4c(C)oc5c4CCCC5)C3)nc2)n1 (stereo not drawn) [CBK285988] | 109
Cn1c(SCC(=O)N2CCN(c3ccccc3)CC2)nc2cc(Cl)ccc21 [CBK298295] | 99.7
Cc1ccc(CN2CCC(N3C(=O)NC4(CCN(CC(C)C)CC4)C3=O)CC2)cc1C [CBK285822] | 96.9
O=C(CNC(=O)c1ccc(Br)cc1)NC1CCCC1 [CBK269591] | 90.3
Cc1oc(S(=O)(=O)N(C)C)cc1C(=O)O [CBK113681] | 98.1

SMILES | viability at 28.5 h, 10 µM [%]
CCCCN(/C=N/S(=O)(=O)c1ccccc1)CCCC [CBK026576] | 92.2
O=c1ncccn1[C@@H]1O[C@H](CO)[C@H](O)C1O (stereo partly drawn) [CBK201195] | 94
CC(C)N(Cc1cccnc1)C(=O)Cn1c(C2CC2)nc2ccccc21 [CBK306156] | 104
Cc1ccccc1C1NC(=O)NC2=C1C(=O)N(C)C2 (stereo not drawn) [CBK288026] | 96.8
O=C1NCCC[C@@H]1NC(=O)[C@H]1CN(C(=O)c2ccccc2)CCN1C(=O)c1cccnc1 [CBK289634] | 108
CCOc1ccc(-c2nn(-c3ccccc3)cc2/C=C2\SC(=S)N(CC(=O)O)C2=O)cc1F [CBK265647] | 105
CC(Oc1cccc(Cl)c1)n1cnnc1 (stereo not drawn) [CBK022246] | 100
N#Cc1c(-c2ccccc2)noc1C/C=N/O [CBK007357] | 87.7
FC(F)(F)c1nc2ccccc2nc1OC1CCOC1 (stereo not drawn) [CBK115806] | 99.6
O=c1[nH]c2ncc(-c3ccco3)nc2n1Cc1cccs1 [CBK064438] | 103
O=C(CCC(=O)Nc1ccc(F)cc1)N/N=C/c1ccc(O)cc1O [CBK261766] | 112
CN1CCN(c2nccnc2-c2ccco2)CC1 [CBK038050] | 86.7
CCOC(=O)C1(C2CCCCC2)CCN(C(=O)COc2ccccc2OC)CC1 [CBK136928] | 96.7
COc1ccc(CN2CCN(c3ccccn3)CC2)cc1OCc1ccccc1 [CBK261889] | 84.9
COC(=O)c1c(NC(=S)Nn2cnnc2)sc2c1CCC(C)C2 (stereo not drawn) [CBK266942] | 91.6
Cc1nn(C)cc1-c1cc(C(=O)Nc2ccccc2C2CC2)on1 [CBK281412] | 95.9
CN(c1ncccc1C#N)C1CCN(C(=O)OCc2ccccc2)CC1 [CBK023869C] | 84.1
Cc1csc(C(Cc2ccsc2)NC(=O)Cc2ccccn2)n1 (stereo not drawn) [CBK285097] | 94.9
CC(C)(C)c1ccc(-c2cnc3nc(O)ccc3c2)cc1 [CBK081284] | 74.6
Cn1c2c(c3ccccc31)C(=O)NCC2 [CBK003517] | 89
COc1ccc(Oc2cncc(OC3CCN(CC4CC4)C3)n2)cc1OC (stereo not drawn) [CBK084412] | 89.3
COCCNc1nc2c(c(N3CCCC(C#N)C3)n1)CCNCC2 (stereo not drawn) [CBK307412] | 87.2
O=c1[nH]c2ncc(-c3ccco3)nc2n1CCCN1CCOCC1 [CBK064319] | 90.6

SMILES | viability at 28.5 h, 10 µM [%]
Cc1cc(NC(=O)CCCc2ccccc2)nc2c1c(=O)oc1ccccc12 [CBK291204] | 109
Cn1c(=O)n(C)c2cc(S(=O)(=O)NCC3(O)CCCNCC3)ccc21 (stereo not drawn) [CBK306777] | 84.9
O=C(Oc1ccc2c(=O)c(Oc3ccc(-c4ccccc4)cc3)coc2c1)c1cccnc1 [CBK264479] | 97.6
Cc1ccc(NC(=O)CCC(=O)O)c(C(=O)c2ccccc2)c1 [CBK262611] | 108
Cc1cc(NS(=O)(=O)c2ccc(NC(=O)Nc3ccc4c(c3)OCO4)cc2)no1 [CBK268139] | 104
O=C(CN1CCN(Cc2ccc3c(c2)OCO3)CC1)Nc1ccc(Cl)cc1C(=O)c1ccccc1 [CBK264241] | 103
CC(=O)NC(c1ccccn1)C1CCCN(C(=O)C2CC2C)C1 (stereo not drawn) [CBK285032] | 84.2
Cc1ccc(-c2csc3ncn4nnnc4c23)cc1 [CBK019710] | 92.5
CCN(CC)Cc1ccc(C(=O)N2CCC(c3ccncc3)CC2)o1 [CBK283051] | 105
Cc1oc(C(=O)N2CCc3sccc3C2c2ccccc2)cc1CN1CCOCC1 (stereo not drawn) [CBK285566] | 105
Cc1nnc(SCC(=O)N/N=C/c2coc3ccccc3c2=O)n1-c1ccccc1 [CBK262842] | 90.3
CCNC(=O)C1(Cc2ccccc2-c2ccncc2)CCOCC1 [CBK285216] | 100
Cc1ccc(S(=O)(=O)N2CCN(c3ccc([N+](=O)[O-])c(N4CCN(C)CC4)c3)CC2)cc1 [CBK264795] | 118
CC(=O)N1CCN(Cc2c(C3CCCC3)[nH]c3ncccc23)CC1 [CBK285339] | 80
OCCN(CCO)Cc1c(Cl)cccc1Cl [CBK261887] | 93
O=C(O)CCC(=O)NNc1ccccc1[N+](=O)[O-] [CBK261546] | 95.7
Cc1cccc(OCC(=O)Nc2ccc(S(=O)(=O)N3CCOCC3)cc2)c1 [CBK264110] | 94.6
CN(C)CCN(C)c1cc(-c2cccc(C(=O)O)c2)nc2ccnn12 [CBK037206] | 101
Cc1nc2nc(-c3ccc(F)cc3F)cn2nc1C [CBK284564] | 90.3
COc1cc(-c2ccc(C(=O)N(C)CCN(C)C)c(N(C)C)n2)cc(OC)c1OC [CBK106076] | 109
CN1C[C@@H](NC(=O)Nc2ccccc2)C[C@H]1c1nc(-c2cccnc2)no1 [CBK288858] | 104
O=C1CC(N2CCC(c3nc4ccccc4s3)CC2)C(=O)N1Cc1ccccc1 (stereo not drawn) [CBK267438] | 90
COc1ccc(CCc2nc(C(F)(F)F)cc(=O)[nH]2)cc1 [CBK003679] | 87.3

SMILES | viability at 28.5 h, 10 µM [%]
Cc1cc(C(=O)CSc2nnc(CN3CCCC3)o2)c(C)n1C1CC1 [CBK306199] | 84
N=C1NC(=O)C(CC(=O)Nc2ccc(SC(F)F)cc2)S1 (stereo not drawn) [CBK265648] | 91.1
O=C(CCSc1ccccc1)Nc1ccccc1C(=O)N1CCCCC1 [CBK269545] | 87.3
CCc1ccc(CNC(=O)Cn2nnc(-c3ccc(CNCCc4ccc(OC)c(OC)c4)cc3)n2)cc1 [CBK155008T] | 77.2
COc1ccccc1CNC(=O)CCn1ccc2ccncc21 [CBK282229] | 91.9
CCOC(=O)Cn1nnc(-c2ccc(Cl)cc2)n1 [CBK069596] | 95.8
Cn1c(SCc2cccnc2)nnc1-c1cccs1 [CBK067706] | 93.1
COCCn1ccnc1C1CCN(C(=O)C(O)c2cccc(Cl)c2)CC1 (stereo not drawn) [CBK306901] | 99.8
CC(C)(C)C(=O)Nc1ccc(-c2ccc(NC(=O)C(C)(C)C)c(C(=O)O)c2)cc1C(=O)O [CBK261392] | 108
N#Cc1ccncc1NCc1ccccc1CN1CCCC1CO (stereo not drawn) [CBK304021] | 85
CS(=O)(=O)N1CCC(C(=O)NC(c2ccccc2)c2ccccc2)CC1 [CBK269801] | 77.8
CC(C)(C)OC(=O)N1Cc2ccccc2C[C@H]1C(=O)N1CCC(C(=O)O)CC1 [CBK286761] | 94.1
Cc1ccc(NS(=O)(=O)c2cc(C(=O)Nc3ccc(S(=O)(=O)N4CCCC4)cc3)ccc2C)cc1 [CBK268784] | 89.8
Cc1ccc2[nH]c(Cc3ccc(NC(=O)c4nc5ccccc5n(C)c4=O)cc3)nc2c1 [CBK285802] | 83.8
c1ccc(CCN2CCC(Cc3ccccc3)CC2)cc1 [CBK126434] | 96.3
Cc1nnc2sc(-c3ccncc3)nn12 [CBK269553] | 84.6
CCC(C)(C)c1ccc(S(=O)(=O)Nc2ccc(F)cc2F)cc1 [CBK200039] | 95.7
COc1ccc2[nH]cc(C(=O)NCCn3nc(C)c(C)c3C)c2c1 [CBK281389] | 88.2
CCCCc1ccc(-c2cnc3ncccc3c2N)cc1 [CBK083683] | 96.2
CCC(NC(=O)C(c1cccs1)c1cccs1)c1ccc(F)cc1 (stereo not drawn) [CBK286339] | 93.4
CN(C)c1ncc(CNc2nc(O)c3c(n2)CCCC3)cn1 [CBK305460] | 89.3
